# Experiments:
# Assay type in all cases: in vivo
# Amaranthus viridis [1] = experiment: Test Example 3: herbicidal effect test by treatment of dry field farming soil (one day after seeding); settings: 120 g/10a active ingredient, evaluated 14 days after treatment
# Outline: (§1)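 Seeds (20 each) mixed into top 1 cm of alluvium in pots, surface pressed. One day later, diluted emulsion sprayed onto soil, 100 L/10 a, 120 g a.i./10 a. Dry weight at 14 d vs untreated gave % herbicidal rate; n=2.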
# southern crabgrass [2] = experiment: as above; settings: 120 g/10a active ingredient, evaluated 14 days after treatment
# Outline: as §1
# Chenopodium album [3] = experiment: as above; settings: 120 g/10a active ingredient, evaluated 14 days after treatment
# Outline: as §1
# Echinochloa crus-galli [4] = experiment: as above; settings: 120 g/10a active ingredient, evaluated 14 days after treatment
# Outline: as §1
# [5] = test system: broad leaf weeds (Lindernia pyxidaria and Monochoria vaginalis); experiment: Test Example 2: herbicidal effect test by treatment during growing period in paddy rice cultivation (seven days after seeding); settings: 120 g/10a active ingredient, assessed 14 days after treatment, dry weight vs untreated area
# Outline: (§2)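 Herbicidal rate = (1 − treated/untreated mean dry weight) × 100, scored 14 days after application, two replicates per rate. Treatment: diluted emulsion dropped onto paddy water seven days after sowing, 120 g active ingredient per 10 ares, in a glass greenhouse.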
# Echinochloa crus-galli [6] = experiment: as above; settings: 120 g/10a active ingredient, assessed 14 days after treatment, dry weight vs untreated area
# Outline: as §2
# Scirpus juncoides [7] = experiment: as above; settings: 120 g/10a active ingredient, assessed 14 days after treatment, dry weight vs untreated area
# Outline: as §2
# [8] = test system: broad leaf weeds (Lindernia pyxidaria and Monochoria vaginalis); experiment: Test Example 1: herbicidal effect test by treatment of rice paddy soil (immediately after seeding); settings: 120 g/10a active ingredient, dry weight vs untreated area, 14 days after treatment
# Outline: (§3)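 Applied at 120 g a.i./10 ares as diluted emulsion dropped into flooded (~3 cm) paddy soil pots right after sowing seeds 0–1 cm deep; greenhouse, two replicates. At day 14, dry weight of treated versus untreated plants gives % herbicidal rate.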
# Echinochloa crus-galli [9] = experiment: as above; settings: 120 g/10a active ingredient, dry weight vs untreated area, 14 days after treatment
# Outline: as §3
# Scirpus juncoides [10] = experiment: as above; settings: 120 g/10a active ingredient, dry weight vs untreated area, 14 days after treatment
# Outline: as §3
# Amaranthus viridis [11] = experiment: Test Example 4: herbicidal effect test by treatment of leave and stem in dry field farming (seven days after seeding); settings: 120 g/10a active ingredient; emulsion sprayed seven days after seeding; evaluated 14 days after treatment
# Outline: (§4)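 Duplicate pots were scored 14 days post-spray by dry weight, herbicidal rate = {1 − treated/untreated average dry weight} × 100. The water-diluted emulsion, equivalent to 120 g active ingredient per 10 ares in 100 L, was applied seven days after sowing 20 seeds each into the upper 1 cm of alluvial soil.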
# southern crabgrass [12] = experiment: as above; settings: 120 g/10a active ingredient; emulsion sprayed seven days after seeding; evaluated 14 days after treatment
# Outline: as §4
# Chenopodium album [13] = experiment: as above; settings: 120 g/10a active ingredient; emulsion sprayed seven days after seeding; evaluated 14 days after treatment
# Outline: as §4
# Echinochloa crus-galli [14] = experiment: as above; settings: 120 g/10a active ingredient; emulsion sprayed seven days after seeding; evaluated 14 days after treatment
# Outline: as §4
structure (smiles),measurement,setting,value
COCC(C)n1oc(=O)c(Cc2ccccc2N(C(=O)OCc2ccccc2)S(=O)(=O)C(F)(F)F)c1C (stereo not drawn) [Compound 1-790],"herbicidal rate, Amaranthus viridis",Amaranthus viridis [1],90%
same,"herbicidal rate, southern crabgrass",southern crabgrass [2],90%
same,"herbicidal rate, Chenopodium album",Chenopodium album [3],90%
same,"herbicidal rate, Echinochloa crus-galli",Echinochloa crus-galli [4],90%
same,Herbicidal rate (%) Lindernia pyxidaria,[5],90%
same,Herbicidal rate (%) Monochoria vaginalis,[5],90%
same,Herbicidal rate (%) Echinochloa crus-galli,Echinochloa crus-galli [6],90%
same,Herbicidal rate (%) Scirpus juncoides,Scirpus juncoides [7],90%
same,Herbicidal rate (%) Lindernia pyxidaria,[8],90%
same,Herbicidal rate (%) Monochoria vaginalis,[8],90%
same,Herbicidal rate (%) Echinochloa crus-galli,Echinochloa crus-galli [9],90%
same,Herbicidal rate (%) Scirpus juncoides,Scirpus juncoides [10],90%
same,"herbicidal effect (herbicidal rate), Amaranthus viridis",Amaranthus viridis [11],40%
same,"herbicidal effect (herbicidal rate), southern crabgrass",southern crabgrass [12],90%
same,"herbicidal effect (herbicidal rate), Chenopodium album",Chenopodium album [13],40%
same,"herbicidal effect (herbicidal rate), Echinochloa crus-galli",Echinochloa crus-galli [14],90%
Cc1c(Cc2ccccc2N(C(=O)OCc2ccccc2)S(=O)(=O)C(F)(F)F)c(=O)on1C(C)c1ccccc1 (stereo not drawn) [Compound 1-796],"herbicidal rate, Amaranthus viridis",Amaranthus viridis [1],90%
same,"herbicidal rate, southern crabgrass",southern crabgrass [2],90%
same,"herbicidal rate, Chenopodium album",Chenopodium album [3],90%
same,"herbicidal rate, Echinochloa crus-galli",Echinochloa crus-galli [4],90%
same,Herbicidal rate (%) Lindernia pyxidaria,[5],90%
same,Herbicidal rate (%) Monochoria vaginalis,[5],90%
same,Herbicidal rate (%) Echinochloa crus-galli,Echinochloa crus-galli [6],90%
same,Herbicidal rate (%) Scirpus juncoides,Scirpus juncoides [7],90%
same,Herbicidal rate (%) Lindernia pyxidaria,[8],90%
same,Herbicidal rate (%) Monochoria vaginalis,[8],90%
same,Herbicidal rate (%) Echinochloa crus-galli,Echinochloa crus-galli [9],90%
same,Herbicidal rate (%) Scirpus juncoides,Scirpus juncoides [10],90%
same,"herbicidal effect (herbicidal rate), Amaranthus viridis",Amaranthus viridis [11],40%
same,"herbicidal effect (herbicidal rate), southern crabgrass",southern crabgrass [12],90%
same,"herbicidal effect (herbicidal rate), Chenopodium album",Chenopodium album [13],40%
same,"herbicidal effect (herbicidal rate), Echinochloa crus-galli",Echinochloa crus-galli [14],90%
CCC(C)n1oc(=O)c(Cc2ccccc2N(C(=O)OCC2CCCO2)S(=O)(=O)C(F)(F)F)c1C (stereo not drawn) [Compound 1-829],"herbicidal rate, Amaranthus viridis",Amaranthus viridis [1],90%
same,"herbicidal rate, southern crabgrass",southern crabgrass [2],90%
same,"herbicidal rate, Chenopodium album",Chenopodium album [3],90%
same,"herbicidal rate, Echinochloa crus-galli",Echinochloa crus-galli [4],90%
same,Herbicidal rate (%) Lindernia pyxidaria,[5],90%
same,Herbicidal rate (%) Monochoria vaginalis,[5],90%
same,Herbicidal rate (%) Echinochloa crus-galli,Echinochloa crus-galli [6],90%
same,Herbicidal rate (%) Scirpus juncoides,Scirpus juncoides [7],90%
same,Herbicidal rate (%) Lindernia pyxidaria,[8],90%
same,Herbicidal rate (%) Monochoria vaginalis,[8],90%
same,Herbicidal rate (%) Echinochloa crus-galli,Echinochloa crus-galli [9],90%
same,Herbicidal rate (%) Scirpus juncoides,Scirpus juncoides [10],90%
same,"herbicidal effect (herbicidal rate), Amaranthus viridis",Amaranthus viridis [11],40%
same,"herbicidal effect (herbicidal rate), southern crabgrass",southern crabgrass [12],90%
same,"herbicidal effect (herbicidal rate), Chenopodium album",Chenopodium album [13],40%
same,"herbicidal effect (herbicidal rate), Echinochloa crus-galli",Echinochloa crus-galli [14],90%
CCNC(=O)N(c1ccccc1Cc1c(C)n(C(C)c2ccccc2)oc1=O)S(=O)(=O)C(F)(F)F (stereo not drawn) [Compound 1-874],"herbicidal rate, Amaranthus viridis",Amaranthus viridis [1],90%
same,"herbicidal rate, southern crabgrass",southern crabgrass [2],90%
same,"herbicidal rate, Chenopodium album",Chenopodium album [3],90%
same,"herbicidal rate, Echinochloa crus-galli",Echinochloa crus-galli [4],90%
same,Herbicidal rate (%) Lindernia pyxidaria,[5],90%
same,Herbicidal rate (%) Monochoria vaginalis,[5],90%
same,Herbicidal rate (%) Echinochloa crus-galli,Echinochloa crus-galli [6],90%
same,Herbicidal rate (%) Scirpus juncoides,Scirpus juncoides [7],90%
same,Herbicidal rate (%) Lindernia pyxidaria,[8],90%
same,Herbicidal rate (%) Monochoria vaginalis,[8],90%
same,Herbicidal rate (%) Echinochloa crus-galli,Echinochloa crus-galli [9],90%
same,Herbicidal rate (%) Scirpus juncoides,Scirpus juncoides [10],90%
same,"herbicidal effect (herbicidal rate), Amaranthus viridis",Amaranthus viridis [11],40%
same,"herbicidal effect (herbicidal rate), southern crabgrass",southern crabgrass [12],90%
same,"herbicidal effect (herbicidal rate), Chenopodium album",Chenopodium album [13],40%
same,"herbicidal effect (herbicidal rate), Echinochloa crus-galli",Echinochloa crus-galli [14],90%
CCN(CC)C(=O)N(c1ccccc1Cc1c(C)n(C(C)c2ccccc2)oc1=O)S(=O)(=O)C(F)(F)F (stereo not drawn) [Compound 1-886],"herbicidal rate, Amaranthus viridis",Amaranthus viridis [1],90%
same,"herbicidal rate, southern crabgrass",southern crabgrass [2],90%
same,"herbicidal rate, Chenopodium album",Chenopodium album [3],90%
same,"herbicidal rate, Echinochloa crus-galli",Echinochloa crus-galli [4],90%
same,Herbicidal rate (%) Lindernia pyxidaria,[5],90%
same,Herbicidal rate (%) Monochoria vaginalis,[5],90%
same,Herbicidal rate (%) Echinochloa crus-galli,Echinochloa crus-galli [6],90%
same,Herbicidal rate (%) Scirpus juncoides,Scirpus juncoides [7],90%
same,Herbicidal rate (%) Lindernia pyxidaria,[8],90%
same,Herbicidal rate (%) Monochoria vaginalis,[8],90%
same,Herbicidal rate (%) Echinochloa crus-galli,Echinochloa crus-galli [9],90%
same,Herbicidal rate (%) Scirpus juncoides,Scirpus juncoides [10],90%
same,"herbicidal effect (herbicidal rate), Amaranthus viridis",Amaranthus viridis [11],40%
same,"herbicidal effect (herbicidal rate), southern crabgrass",southern crabgrass [12],90%
same,"herbicidal effect (herbicidal rate), Chenopodium album",Chenopodium album [13],40%
same,"herbicidal effect (herbicidal rate), Echinochloa crus-galli",Echinochloa crus-galli [14],90%
Cc1c(Cc2ccccc2N(S(C)(=O)=O)S(=O)(=O)C(F)(F)F)c(=O)on1C(C)C [Compound 1-888],"herbicidal rate, Amaranthus viridis",Amaranthus viridis [1],40%
same,"herbicidal rate, southern crabgrass",southern crabgrass [2],70%
same,"herbicidal rate, Chenopodium album",Chenopodium album [3],60%
same,"herbicidal rate, Echinochloa crus-galli",Echinochloa crus-galli [4],90%
same,Herbicidal rate (%) Lindernia pyxidaria,[5],80%
same,Herbicidal rate (%) Monochoria vaginalis,[5],100%
same,Herbicidal rate (%) Echinochloa crus-galli,Echinochloa crus-galli [6],90%
same,Herbicidal rate (%) Scirpus juncoides,Scirpus juncoides [7],90%
same,Herbicidal rate (%) Lindernia pyxidaria,[8],100%
same,Herbicidal rate (%) Monochoria vaginalis,[8],90%
same,Herbicidal rate (%) Echinochloa crus-galli,Echinochloa crus-galli [9],100%
same,Herbicidal rate (%) Scirpus juncoides,Scirpus juncoides [10],90%
same,"herbicidal effect (herbicidal rate), Amaranthus viridis",Amaranthus viridis [11],40%
same,"herbicidal effect (herbicidal rate), southern crabgrass",southern crabgrass [12],40%
same,"herbicidal effect (herbicidal rate), Chenopodium album",Chenopodium album [13],40%
same,"herbicidal effect (herbicidal rate), Echinochloa crus-galli",Echinochloa crus-galli [14],80%
Cc1c(Cc2ccccc2N(S(C)(=O)=O)S(=O)(=O)C(F)(F)F)c(=O)on1C(C)(C)C [Compound 1-889],"herbicidal rate, Amaranthus viridis",Amaranthus viridis [1],90%
same,"herbicidal rate, southern crabgrass",southern crabgrass [2],90%
same,"herbicidal rate, Chenopodium album",Chenopodium album [3],90%
same,"herbicidal rate, Echinochloa crus-galli",Echinochloa crus-galli [4],90%
same,Herbicidal rate (%) Lindernia pyxidaria,[5],90%
same,Herbicidal rate (%) Monochoria vaginalis,[5],90%
same,Herbicidal rate (%) Echinochloa crus-galli,Echinochloa crus-galli [6],90%
same,Herbicidal rate (%) Scirpus juncoides,Scirpus juncoides [7],90%
same,Herbicidal rate (%) Lindernia pyxidaria,[8],90%
same,Herbicidal rate (%) Monochoria vaginalis,[8],90%
same,Herbicidal rate (%) Echinochloa crus-galli,Echinochloa crus-galli [9],90%
same,Herbicidal rate (%) Scirpus juncoides,Scirpus juncoides [10],90%
same,"herbicidal effect (herbicidal rate), Amaranthus viridis",Amaranthus viridis [11],40%
same,"herbicidal effect (herbicidal rate), southern crabgrass",southern crabgrass [12],90%
same,"herbicidal effect (herbicidal rate), Chenopodium album",Chenopodium album [13],40%
same,"herbicidal effect (herbicidal rate), Echinochloa crus-galli",Echinochloa crus-galli [14],90%
CCC(C)n1oc(=O)c(Cc2ccccc2N(S(C)(=O)=O)S(=O)(=O)C(F)(F)F)c1C (stereo not drawn) [Compound 1-890],"herbicidal rate, Amaranthus viridis",Amaranthus viridis [1],90%
same,"herbicidal rate, southern crabgrass",southern crabgrass [2],90%
same,"herbicidal rate, Chenopodium album",Chenopodium album [3],90%
same,"herbicidal rate, Echinochloa crus-galli",Echinochloa crus-galli [4],90%
same,Herbicidal rate (%) Lindernia pyxidaria,[5],90%
same,Herbicidal rate (%) Monochoria vaginalis,[5],90%
same,Herbicidal rate (%) Echinochloa crus-galli,Echinochloa crus-galli [6],90%
same,Herbicidal rate (%) Scirpus juncoides,Scirpus juncoides [7],90%
same,Herbicidal rate (%) Lindernia pyxidaria,[8],90%
same,Herbicidal rate (%) Monochoria vaginalis,[8],90%
same,Herbicidal rate (%) Echinochloa crus-galli,Echinochloa crus-galli [9],90%
same,Herbicidal rate (%) Scirpus juncoides,Scirpus juncoides [10],90%
same,"herbicidal effect (herbicidal rate), Amaranthus viridis",Amaranthus viridis [11],40%
same,"herbicidal effect (herbicidal rate), southern crabgrass",southern crabgrass [12],90%
same,"herbicidal effect (herbicidal rate), Chenopodium album",Chenopodium album [13],40%
same,"herbicidal effect (herbicidal rate), Echinochloa crus-galli",Echinochloa crus-galli [14],90%
Cc1c(Cc2ccccc2N(S(C)(=O)=O)S(=O)(=O)C(F)(F)F)c(=O)on1CC(C)C [Compound 1-892],"herbicidal rate, Amaranthus viridis",Amaranthus viridis [1],90%
same,"herbicidal rate, southern crabgrass",southern crabgrass [2],90%
same,"herbicidal rate, Chenopodium album",Chenopodium album [3],80%
same,"herbicidal rate, Echinochloa crus-galli",Echinochloa crus-galli [4],90%
same,Herbicidal rate (%) Lindernia pyxidaria,[5],80%
same,Herbicidal rate (%) Monochoria vaginalis,[5],80%
same,Herbicidal rate (%) Echinochloa crus-galli,Echinochloa crus-galli [6],90%
same,Herbicidal rate (%) Scirpus juncoides,Scirpus juncoides [7],90%
same,Herbicidal rate (%) Lindernia pyxidaria,[8],90%
same,Herbicidal rate (%) Monochoria vaginalis,[8],90%
same,Herbicidal rate (%) Echinochloa crus-galli,Echinochloa crus-galli [9],100%
same,Herbicidal rate (%) Scirpus juncoides,Scirpus juncoides [10],90%
same,"herbicidal effect (herbicidal rate), Amaranthus viridis",Amaranthus viridis [11],40%
same,"herbicidal effect (herbicidal rate), southern crabgrass",southern crabgrass [12],40%
same,"herbicidal effect (herbicidal rate), Chenopodium album",Chenopodium album [13],40%
same,"herbicidal effect (herbicidal rate), Echinochloa crus-galli",Echinochloa crus-galli [14],50%
